Results taken from patent EP1086692A2, “Estrogen agonists and antagonists for multiple indications” (priority 1999, dated 2001).
“And” between values parts separate entries of the source, which are not always exact repeats. Equal entries are not always repeated.

What was measured:
human plasma proteins [1] = assay: Binding of propranolol to human plasma proteins in the absence and presence of droloxifene or lasofoxifene (equilibrium dialysis, HPLC-MS); details: result in words; droloxifene 200 ng/ml, lasofoxifene 50 ng/ml
Experimental: (§1) The effect of droloxifene or lasofoxifene on plasma protein binding was assessed at […] concentrations of 2 and 10 µg/ml and propranolol concentrations of 50 and 500 ng/ml. The concentrations of droloxifene and lasofoxifene used were 200 and 50 ng/ml respectively.

human plasma proteins [2] = assay: Binding of droloxifene and lasofoxifene to human plasma proteins; details: binding of the SERM itself, human plasma
[3] = Binding of propranolol to human plasma proteins in the absence and presence of droloxifene or lasofoxifene (equilibrium dialysis, HPLC-MS); details: human, plasma
Experimental: as §1

[4] = Binding of droloxifene and lasofoxifene to human plasma proteins; details: human, plasma

Oc1ccc2c(c1)CC[C@H](c1ccccc1)[C@@H]2c1ccc(OCCN2CCCC2)cc1 [lasofoxifene, (-) cis-6-phenyl-5[4-(2-pyrrolitin-1-yl-ehtoxy)-phenyl]-5,6,7,8-tetrahydronaphthalene-2-ol]
effect on the protein binding of propranolol in human plasma (human plasma proteins [1]): will not be altered
bound to human plasma proteins (human plasma proteins [2]): 99.997% and 99.94%

CC(C)NCC(O)COc1cccc2ccccc12 (stereo not drawn) [propranolol, reference compound]
fraction unbound [3]: 0.24

CC/C(=C(/c1ccc(OCCN(C)C)cc1)c1cccc(O)c1)c1ccccc1 [droloxifene]
effect on the protein binding of propranolol in human plasma (human plasma proteins [1]): will not be altered
bound to human plasma proteins (human plasma proteins [2]): 99.997%
fraction unbound [4]: 3e-05
